{
  "source": "patent US4738954A",
  "about": "“Novel N^6 -substituted-5'-oxidized adenosine analogs” (Warner-Lambert Company, priority 1985, dated 1988)",
  "type_in_all_cases": "cell-based, human (Community Research Clinic volunteers)",
  "key": {"[1]": {"tested_on": "platelets (ADP-induced aggregation)", "test": "Antithrombocyte aggregation test in vitro (ATA-8), ADP-induced, platelet rich plasma", "settings": "Homo sapiens", "description": "(§1) ANTITHROMBOCYTE AGGREGATION TEST-IN VITRO (ATA-8)\n(§2) Source and Preparation of Platelet Suspensions\n(§3) Blood is collected from Community Research Clinic volunteers who have not ingested aspirin or other non-steroidol antiinflammatory drugs within the preceeding two weeks and have not eaten within the nine hours before blood draw. Blood is taken in 4.5 ml portions in Vacutainer No. 6462S silicone-coated tubes or equivalent containing 0.5 ml of 3.8% trisodium citrate. Usually six or eight portions of 4.5 ml are drawn from each volunteer. The blood collected from three or four volunteers is pooled prior to centrifugation. The pooled blood is put in 50 ml polyethylene tubes and centrifuged at 80×g (ca 600 rpm) for 20 min in an International Model K centrifuge at room temperature. […] The platelet count of the PRP is determined with a Coulter Thromobocounter. […]\n(§4) Platelet-rich plasma adjusted to 250,000 platelets per microliter is distributed in 0.36 ml aliquots into silicone-coated cuvettes of 0.312 inch diameter. […] Extent of aggregation, using ADP stimulus, or rate of aggregation, using collagen stimulus, is determined using the Payton Scientific Dual Channel Aggregation Module, Model 300B. Appropriate concentrations of ADP or collagen are determined by an initial brief titration. […]"}, "[2]": {"tested_on": "platelets (collagen-induced aggregation)", "test": "Antithrombocyte aggregation test in vitro (ATA-8), collagen-induced, platelet rich plasma", "settings": "Homo sapiens", "description": "as §1, §2\nas §3, with “centrifugation.” for “centrifugation. The pooled blood is put in 50 ml polyethylene tubes and centrifuged at 80×g (ca 600 rpm) for 20 min in an International Model K centrifuge at room temperature.”\nas §4\nThe major slope (that is, the slope of the first straight line portion) of the collagen-induced aggregation curve for each drug concentration is determined and compared to the slope of the curve for control aggregations. […]"}, "[3]": {"tested_on": "platelets (ADP-induced aggregation)", "test": "Antithrombocyte aggregation test in vitro (ATA-8), ADP-induced, whole blood", "settings": "Homo sapiens, Platelet", "description": "as §1\nBlood is collected from Community Research Clinic volunteers who have not ingested aspirin or other non-steroidol antiinflammatory drugs within the preceeding two weeks and have not eaten within the nine hours before blood draw. Blood is taken in 4.5 ml portions in Vacutainer No. 6462S silicone-coated tubes or equivalent containing 0.5 ml of 3.8% trisodium citrate. Usually six or eight portions of 4.5 ml are drawn from each volunteer. […] The pooled blood is put in 50 ml polyethylene tubes and centrifuged at 80×g (ca 600 rpm) for 20 min in an International Model K centrifuge at room temperature. […]\nAddition of drug solution or saline (0.02 ml) is followed in 5 min by addition of aggregating agent (ADP or collagen suspension, 0.02 ml). Extent of aggregation, using ADP stimulus, or rate of aggregation, using collagen stimulus, is determined using the Payton Scientific Dual Channel Aggregation Module, Model 300B. Appropriate concentrations of ADP or collagen are determined by an initial brief titration.\nThe height in millimeters of aggregation curves for control aggregations (no drug addition, saline only) are compared with the heights of curves obtained after drug addition at various appropriate concentrations. Heights after drug addition are finally expressed as \"percent of control\" values. […]"}},
  "data": [
    {"smiles": "CCNC(=O)[C@H]1O[C@@H](n2cnc3c(N[C@H](C)Cc4ccccc4)ncnc32)[C@H](O)[C@@H]1O", "note": "[Example 1, (R)-N-6-[(2-phenyl-1-methyl)ethyl]-adenosine-5'-ethylcarboxamide]", "values": [
      {"measurement": "IC50", "setting": "[1]", "value": 600, "unit": "nM"},
      {"measurement": "IC50", "setting": "[2]", "value": 200, "unit": "nM"},
      {"measurement": "IC50", "setting": "[3]", "value": 0.7, "unit": "nM"}
    ]}
  ]
}
